Data from patent US20140120232A1, “ACID TASTE/ACID SMELL-REDUCING AGENT” (T. HASEGAWA CO., LTD., priority 2011, published 2014).

Assay: Sensory evaluation of Vermont drink containing the agent
Settings: ten panels
Description: Water was added to a mixture of 10 g of apple-cider vinegar (acetic acid: 4.8%), 3 g of honey, 7 g of fructose-glucose liquid sugar mixed with sugar, 0.02 g of citric acid, 0.002 g of trisodium citrate, and 0.1 g of a Vermont flavor (manufactured by T. Hasegawa Co., Ltd.) to give a total amount of 100 mL. To the resulting mixture was added (Z,Z)-4,7-tridecadienal as the acid taste and/or acid smell-reducing agent of the present invention in concentrations shown in the following Table 1 to give Vermont drinks containing the agent.
Sensory evaluation of each drink was carried out by ten panels. […] The piercing aroma characteristic to aldehydes is a characteristic aroma common to every aldehyde and refers to an irritant off-smell giving an image of deteriorated oils and fats, soap, metals, Houttuynia cordata, etc. The judgment of smell was performed by comparing the effects at different concentrations of the acid taste and/or acid smell-reducing agent, and a concentration giving the highest acid taste/acid smell quality was selected. […]

CCCCC/C=C/C/C=C\C=C\C=O [(E,Z,E)-2,4,7-tridecatrienal]
4: N: number of panels, irritation of acid reduced to give a mild acid taste (1 ppb) | X: number of panels, acid taste reduced but piercing odor characteristic to aldehydes unpleasant (1 ppb) | Flavor judgment: number of panels who judged acid taste/acid smell quality the highest (5 ppt) | Flavor judgment: number of panels who judged acid taste/acid smell quality the highest (20 ppt) | N: number of panels, irritation of acid reduced to give a mild acid taste (500 ppt)
6: A: number of panels, acid taste/acid smell extreme and cause irritation (0.5 ppt) | B: number of panels, acid taste/acid smell slightly strong and slightly cause irritation (1 ppt) | N: number of panels, irritation of acid reduced to give a mild acid taste (5 ppt)
10: A: number of panels, acid taste/acid smell extreme and cause irritation (0.005 ppt) | A: number of panels, acid taste/acid smell extreme and cause irritation (0.02 ppt) | A: number of panels, acid taste/acid smell extreme and cause irritation (0.1 ppt)
2: B: number of panels, acid taste/acid smell slightly strong and slightly cause irritation (0.2 ppt) | B: number of panels, acid taste/acid smell slightly strong and slightly cause irritation (0.5 ppt) | C: number of panels, acid taste/acid smell slightly unpleasant (0.5 ppt) | C: number of panels, acid taste/acid smell slightly unpleasant (1 ppb) | N: number of panels, irritation of acid reduced to give a mild acid taste (10 ppb) | N: number of panels, irritation of acid reduced to give a mild acid taste (50 ppb) | C: number of panels, acid taste/acid smell slightly unpleasant (100 ppt) | Flavor judgment: number of panels who judged acid taste/acid smell quality the highest (100 ppt)
7: X: number of panels, acid taste reduced but piercing odor characteristic to aldehydes unpleasant (10 ppb) | N: number of panels, irritation of acid reduced to give a mild acid taste (20 ppt)
1: N: number of panels, irritation of acid reduced to give a mild acid taste (1 ppt) | B: number of panels, acid taste/acid smell slightly strong and slightly cause irritation (5 ppt) | C: number of panels, acid taste/acid smell slightly unpleasant (10 ppb)
3: C: number of panels, acid taste/acid smell slightly unpleasant (1 ppt) | C: number of panels, acid taste/acid smell slightly unpleasant (5 ppt) | C: number of panels, acid taste/acid smell slightly unpleasant (20 ppt) | C: number of panels, acid taste/acid smell slightly unpleasant (500 ppt) | X: number of panels, acid taste reduced but piercing odor characteristic to aldehydes unpleasant (500 ppt)
0: B: number of panels, acid taste/acid smell slightly strong and slightly cause irritation (0.005 ppt) | C: number of panels, acid taste/acid smell slightly unpleasant (0.005 ppt) | Flavor judgment: number of panels who judged acid taste/acid smell quality the highest (0.005 ppt) | N: number of panels, irritation of acid reduced to give a mild acid taste (0.005 ppt) | X: number of panels, acid taste reduced but piercing odor characteristic to aldehydes unpleasant (0.005 ppt) | B: number of panels, acid taste/acid smell slightly strong and slightly cause irritation (0.02 ppt) | C: number of panels, acid taste/acid smell slightly unpleasant (0.02 ppt) | Flavor judgment: number of panels who judged acid taste/acid smell quality the highest (0.02 ppt) | N: number of panels, irritation of acid reduced to give a mild acid taste (0.02 ppt) | X: number of panels, acid taste reduced but piercing odor characteristic to aldehydes unpleasant (0.02 ppt) | B: number of panels, acid taste/acid smell slightly strong and slightly cause irritation (0.1 ppt) | C: number of panels, acid taste/acid smell slightly unpleasant (0.1 ppt) | Flavor judgment: number of panels who judged acid taste/acid smell quality the highest (0.1 ppt) | N: number of panels, irritation of acid reduced to give a mild acid taste (0.1 ppt) | X: number of panels, acid taste reduced but piercing odor characteristic to aldehydes unpleasant (0.1 ppt) | C: number of panels, acid taste/acid smell slightly unpleasant (0.2 ppt) | Flavor judgment: number of panels who judged acid taste/acid smell quality the highest (0.2 ppt) | N: number of panels, irritation of acid reduced to give a mild acid taste (0.2 ppt) | X: number of panels, acid taste reduced but piercing odor characteristic to aldehydes unpleasant (0.2 ppt) | Flavor judgment: number of panels who judged acid taste/acid smell quality the highest (0.5 ppt) | N: number of panels, irritation of acid reduced to give a mild acid taste (0.5 ppt) | X: number of panels, acid taste reduced but piercing odor characteristic to aldehydes unpleasant (0.5 ppt) | A: number of panels, acid taste/acid smell extreme and cause irritation (1 ppb) | B: number of panels, acid taste/acid smell slightly strong and slightly cause irritation (1 ppb) | Flavor judgment: number of panels who judged acid taste/acid smell quality the highest (1 ppb) | A: number of panels, acid taste/acid smell extreme and cause irritation (1 ppt) | Flavor judgment: number of panels who judged acid taste/acid smell quality the highest (1 ppt) | X: number of panels, acid taste reduced but piercing odor characteristic to aldehydes unpleasant (1 ppt) | A: number of panels, acid taste/acid smell extreme and cause irritation (5 ppt) | X: number of panels, acid taste reduced but piercing odor characteristic to aldehydes unpleasant (5 ppt) | A: number of panels, acid taste/acid smell extreme and cause irritation (10 ppb) | B: number of panels, acid taste/acid smell slightly strong and slightly cause irritation (10 ppb) | Flavor judgment: number of panels who judged acid taste/acid smell quality the highest (10 ppb) | A: number of panels, acid taste/acid smell extreme and cause irritation (20 ppt) | B: number of panels, acid taste/acid smell slightly strong and slightly cause irritation (20 ppt) | X: number of panels, acid taste reduced but piercing odor characteristic to aldehydes unpleasant (20 ppt) | A: number of panels, acid taste/acid smell extreme and cause irritation (50 ppb) | B: number of panels, acid taste/acid smell slightly strong and slightly cause irritation (50 ppb) | C: number of panels, acid taste/acid smell slightly unpleasant (50 ppb) | Flavor judgment: number of panels who judged acid taste/acid smell quality the highest (50 ppb) | A: number of panels, acid taste/acid smell extreme and cause irritation (100 ppt) | B: number of panels, acid taste/acid smell slightly strong and slightly cause irritation (100 ppt) | X: number of panels, acid taste reduced but piercing odor characteristic to aldehydes unpleasant (100 ppt) | A: number of panels, acid taste/acid smell extreme and cause irritation (500 ppt) | B: number of panels, acid taste/acid smell slightly strong and slightly cause irritation (500 ppt) | Flavor judgment: number of panels who judged acid taste/acid smell quality the highest (500 ppt)
8: A: number of panels, acid taste/acid smell extreme and cause irritation (0.2 ppt) | X: number of panels, acid taste reduced but piercing odor characteristic to aldehydes unpleasant (50 ppb) | N: number of panels, irritation of acid reduced to give a mild acid taste (100 ppt)
